In ChEMBL document CHEMBL1201862, “PubChem BioAssay data set” (2004):
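96-well plates; 48 h exposure; 5 concentrations. Endpoints by linear interpolation between flanking doses. Not reached: highest tested concentration assigned. GI50 = concentration required for 50% inhibition of growth.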 Calls of active or inactive are those of the source. No stated cut-off is given here; in the data, active = GI50 up to about 1.1 µM and inactive = higher.

Tests used:
Experiment in all cases: inhibition of tumour cell growth, NCI panel, 48 h
[1] = tested on: OVCAR-8
[2] = tested on: A498
[3] = tested on: TK-10
[4] = tested on: MDA-N
[5] = tested on: 786-0
[6] = tested on: MCF7
[7] = tested on: NCI-H460
[8] = tested on: SF-539
[9] = tested on: K562
[10] = tested on: SN12C
[11] = tested on: HT-29
[12] = tested on: SW-620
[13] = tested on: SK-MEL-28
[14] = tested on: SF-295
[15] = tested on: UACC-62
[16] = tested on: Hs-578T
[17] = tested on: A549
[18] = tested on: MOLT-4
[19] = tested on: HL-60
[20] = tested on: HOP-92

SMILES: C/C(Nc1ccc(Cl)cc1)=C1/CCOC1=O
- GI50 [1]: 7.89 µM (inactive)
- GI50 [2]: > 100 µM (inactive)
- GI50 [3]: 46.8 µM (inactive)
- GI50 [4]: 92.5 µM (inactive)
- GI50 [5]: > 100 µM (inactive)
- GI50 [6]: 13.2 µM (inactive)
- GI50 [7]: > 31.4 µM (inactive)
- GI50 [8]: > 25.4 µM (inactive)
- GI50 [9]: 0.346 µM (active)
- GI50 [10]: > 100 µM (inactive)
- GI50 [11]: 30.1 µM (inactive)
- GI50 [12]: > 53.2 µM (inactive)
- GI50 [13]: > 100 µM (inactive)
- GI50 [14]: 6.7 µM (inactive)
- GI50 [15]: 0.168 µM (active)
- GI50 [16]: > 100 µM (inactive)
- GI50 [17]: 4.89 µM (inactive)
- GI50 [18]: 1.93 µM (inactive)
- GI50 [19]: 1.15 µM (inactive)
- GI50 [20]: > 100 µM (inactive)

SMILES: Nc1nc2[nH]cnc2c(=S)[nH]1 [THIOGUANINE]
- GI50 [1]: 0.687 µM (active)
- GI50 [2]: 6.68 µM (inactive)
- GI50 [3]: 0.962 µM (active)
- GI50 [4]: 1.01 µM (active)
- GI50 [5]: 0.796 µM (active)
- GI50 [6]: 0.701 µM (active)
- GI50 [7]: 0.624 µM (active)
- GI50 [8]: 1.05 µM (active)
- GI50 [9]: 0.385 µM (active)
- GI50 [10]: 1.31 µM (inactive)
- GI50 [11]: 1.13 µM (inactive)
- GI50 [12]: 1.45 µM (inactive)
- GI50 [13]: 9.4 µM (inactive)
- GI50 [14]: 1.08 µM (active)
- GI50 [15]: 0.537 µM (active)
- GI50 [16]: 6.28 µM (inactive)
- GI50 [17]: 3.63 µM (inactive)
- GI50 [18]: 0.269 µM (active)
- GI50 [19]: 1.11 µM (active)
- GI50 [20]: 0.818 µM (active)

SMILES: N#CCN1CCN(CC#N)CCN(CC#N)CCN(CC#N)CC1
- GI50 [1]: > 100 µM (inactive)
- GI50 [2]: > 100 µM (inactive)
- GI50 [3]: > 100 µM (inactive)
- GI50 [4]: > 100 µM (inactive)
- GI50 [5]: > 100 µM (inactive)
- GI50 [6]: 43.1 µM (inactive)
- GI50 [7]: 53.3 µM (inactive)
- GI50 [8]: > 100 µM (inactive)
- GI50 [9]: > 100 µM (inactive)
- GI50 [10]: > 100 µM (inactive)
- GI50 [11]: 50.5 µM (inactive)
- GI50 [12]: 42 µM (inactive)
- GI50 [13]: > 100 µM (inactive)
- GI50 [14]: > 100 µM (inactive)
- GI50 [15]: 80.2 µM (inactive)
- GI50 [16]: > 100 µM (inactive)
- GI50 [17]: > 100 µM (inactive)
- GI50 [18]: > 100 µM (inactive)
- GI50 [19]: 33.3 µM (inactive)
- GI50 [20]: > 100 µM (inactive)

SMILES: Cc1cc(N(CCOS(C)(=O)=O)CCOS(C)(=O)=O)ccc1/C=N/c1ccc(-c2csc(-c3ccc(Br)cc3)n2)cc1
- GI50 [1]: 12.9 µM (inactive)
- GI50 [2]: 2.11 µM (inactive)
- GI50 [3]: 7.57 µM (inactive)
- GI50 [4]: 14.7 µM (inactive)
- GI50 [5]: 1.84 µM (inactive)
- GI50 [6]: 1.02 µM (active)
- GI50 [7]: 0.0483 µM (active)
- GI50 [8]: 1.17 µM (inactive)
- GI50 [9]: 12.2 µM (inactive)
- GI50 [10]: 10.7 µM (inactive)
- GI50 [11]: 7.06 µM (inactive)
- GI50 [12]: 15.6 µM (inactive)
- GI50 [13]: 31.2 µM (inactive)
- GI50 [14]: 2.95 µM (inactive)
- GI50 [15]: 3.66 µM (inactive)
- GI50 [16]: 35.6 µM (inactive)
- GI50 [17]: 2.65 µM (inactive)
- GI50 [18]: 2.38 µM (inactive)
- GI50 [19]: 2.58 µM (inactive)
- GI50 [20]: 14.4 µM (inactive)

SMILES: Cn1cnc2c(NCc3ccccc3)nc(NCCO)nc21 [OLOMOUCINE]
- GI50 [1]: 66.2 µM (inactive)
- GI50 [2]: 103 µM (inactive)
- GI50 [3]: 63.8 µM (inactive)
- GI50 [4]: 79.4 µM (inactive)
- GI50 [5]: 60.7 µM (inactive)
- GI50 [6]: 39.7 µM (inactive)
- GI50 [7]: 104 µM (inactive)
- GI50 [8]: 42.2 µM (inactive)
- GI50 [9]: 107 µM (inactive)
- GI50 [10]: 90.2 µM (inactive)
- GI50 [11]: 71.4 µM (inactive)
- GI50 [12]: 43.5 µM (inactive)
- GI50 [13]: 52.8 µM (inactive)
- GI50 [14]: 41.1 µM (inactive)
- GI50 [15]: 32.6 µM (inactive)
- GI50 [16]: 69.5 µM (inactive)
- GI50 [17]: 43.9 µM (inactive)
- GI50 [18]: 70.1 µM (inactive)
- GI50 [19]: 36.9 µM (inactive)
- GI50 [20]: 61.2 µM (inactive)

SMILES: Nc1nncs1
- GI50 [1]: 1910 µM (inactive)
- GI50 [2]: 867 µM (inactive)
- GI50 [3]: > 5000 µM (inactive)
- GI50 [4]: 1950 µM (inactive)
- GI50 [5]: 4080 µM (inactive)
- GI50 [6]: 2480 µM (inactive)
- GI50 [7]: 692 µM (inactive)
- GI50 [8]: 3560 µM (inactive)
- GI50 [9]: 1320 µM (inactive)
- GI50 [10]: 3040 µM (inactive)
- GI50 [11]: 211 µM (inactive)
- GI50 [12]: 1260 µM (inactive)
- GI50 [13]: 1980 µM (inactive)
- GI50 [14]: 2760 µM (inactive)
- GI50 [15]: 1910 µM (inactive)
- GI50 [16]: 1620 µM (inactive)
- GI50 [17]: 942 µM (inactive)
- GI50 [18]: 695 µM (inactive)
- GI50 [19]: 2080 µM (inactive)
- GI50 [20]: 2260 µM (inactive)

SMILES: Cc1cc(C)c2c(=O)n(CN3CCC(O)(c4ccccc4)CC3)sc2n1
- GI50 [1]: 30.1 µM (inactive)
- GI50 [2]: 78.3 µM (inactive)
- GI50 [3]: 11.6 µM (inactive)
- GI50 [4]: 19.6 µM (inactive)
- GI50 [5]: 17.1 µM (inactive)
- GI50 [6]: 47.9 µM (inactive)
- GI50 [7]: 29 µM (inactive)
- GI50 [8]: 21.2 µM (inactive)
- GI50 [9]: 24 µM (inactive)
- GI50 [10]: 25.7 µM (inactive)
- GI50 [11]: 28.4 µM (inactive)
- GI50 [12]: 26.8 µM (inactive)
- GI50 [13]: 56.2 µM (inactive)
- GI50 [14]: > 100 µM (inactive)
- GI50 [15]: 50.9 µM (inactive)
- GI50 [16]: 40 µM (inactive)
- GI50 [17]: > 100 µM (inactive)
- GI50 [18]: 28.1 µM (inactive)
- GI50 [19]: 20 µM (inactive)
- GI50 [20]: > 100 µM (inactive)
